These results are taken from PMC8308736, “Functional Characterization of the Oxantel-Sensitive Acetylcholine Receptor from Trichuris muris” (Pharmaceuticals, 2021).

Where two headings read alike, the source gives them in different places.

One experiment addresses T1, Tmu-ACR-16-like (Trichuris muris, UniProt A0A5S6R3I6).
T1 construct: full-length subunit (464 amino acids; GenBank MZ322663), homomeric receptor in Xenopus laevis oocytes
The experiment in a line: two-electrode voltage-clamp in Xenopus oocytes co-injected with Xla-ric-3. Format: cell-based. On the technique in general: Two-electrode voltage clamp is typically applied to oocytes expressing channels or transporters.

In a further experiment the target is T2, Tsu-ACR-16-like (Trichuris suis, UniProt A0A890W0I7).
T2 construct: ACR-16-like subunit (GenBank MT386096), homomeric receptor in Xenopus laevis oocytes
T2 sequence (A0A890W0I7 22-461): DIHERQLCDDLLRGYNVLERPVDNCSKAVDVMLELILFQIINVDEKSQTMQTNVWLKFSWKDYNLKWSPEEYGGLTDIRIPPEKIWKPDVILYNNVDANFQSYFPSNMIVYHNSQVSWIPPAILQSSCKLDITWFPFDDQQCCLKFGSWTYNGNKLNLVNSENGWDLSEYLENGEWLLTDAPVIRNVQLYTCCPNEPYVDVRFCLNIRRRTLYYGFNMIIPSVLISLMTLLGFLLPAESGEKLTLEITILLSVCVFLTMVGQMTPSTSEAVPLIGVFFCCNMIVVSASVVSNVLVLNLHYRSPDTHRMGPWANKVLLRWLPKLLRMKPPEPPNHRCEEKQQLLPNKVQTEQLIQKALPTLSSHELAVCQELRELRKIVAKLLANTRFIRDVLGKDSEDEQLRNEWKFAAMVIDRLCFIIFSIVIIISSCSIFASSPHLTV
Described as above. Format: cell-based.

T1 sequence (A0A5S6R3I6 entry or part of it): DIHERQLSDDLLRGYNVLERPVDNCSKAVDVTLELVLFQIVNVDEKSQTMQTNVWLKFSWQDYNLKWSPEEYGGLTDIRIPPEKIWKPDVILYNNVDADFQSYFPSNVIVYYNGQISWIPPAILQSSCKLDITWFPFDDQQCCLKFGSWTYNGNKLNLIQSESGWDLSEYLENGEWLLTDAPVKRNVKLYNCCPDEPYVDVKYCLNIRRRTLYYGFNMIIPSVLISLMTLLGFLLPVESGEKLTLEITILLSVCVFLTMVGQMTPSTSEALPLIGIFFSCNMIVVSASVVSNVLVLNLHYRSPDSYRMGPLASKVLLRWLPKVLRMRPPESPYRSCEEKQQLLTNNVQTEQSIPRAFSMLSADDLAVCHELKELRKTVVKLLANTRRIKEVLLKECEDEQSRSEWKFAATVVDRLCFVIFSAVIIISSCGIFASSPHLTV

Take `CN1CCCN=C1/C=C/c1cccc(O)c1` [oxantel]: the EC50 on Tmu-ACR-16-like (read-out: EC50) was 32.7 ± 0.3 µM.
`Clc1ccc(C2CC3CCC2N3)cn1` (stereo not shown) [epibatidine]: the EC50 at Tsu-ACR-16-like is 1.9 ± 0.5 µM; on Tmu-ACR-16-like, 1.7 ± 0.4 µM.
For the molecule `CC(=O)OCC[N+](C)(C)C` [acetylcholine], on Tmu-ACR-16-like (read-out: EC50), the EC50 turned out to be 31.1 ± 0.3 µM.

One may read the EC50 as the midpoint of the concentration-response curve.
